Read-outs that look alike come from different tables or passages of the source.
Test system: male ICR mice
Test: MES test (anti-epilepsy activity), mice, oral (mMES po)
Format: in vivo
Settings: Mus musculus; for responders at 80 mg/kg: injection amount 80 mg/kg; for responders at 50 mg/kg: injection amount 50 mg/kg; for responders at 100 mg/kg: injection amount 100 mg/kg; for ED50: mice, at peak time
Procedure: Biological Experimental Example. 1: Measurement of Anti-Epilepsy Activity (MES-Test)
In the MES test (Ref., G. Villetti et al. Neuropharmacology 40(2001) 866-878), an electrical stimulus (mice: 50 mA, 60 Hz, 0.2 sec, and rats: 150 mA, 60 Hz, 0.2 sec in the test animal) supplied by an 11 A Shocker (IITC Life Science Company) was delivered through corneal electrodes. All mice or rats assigned to any electroshock at peak time were treated with each test compound sample which was dissolved in 20% tween 80 prepared by saline solvent applied orally before the test. […] Three doses of the test sample were administered orally to 9-18 animals (3-6 mice per dose) for evaluating the respective doses at which 50% of the animals were protected from seizure (ED50). The ED50 value (median effective close) was calculated by Litchfield and Wicoxon log-probit method which is a dose-response relationship. Experimental animals, male ICR mice and male SD rats, were purchased from OrientBio, Samtako, or Nara Biotech, Korea, and housed in cages (4-5 mice or 3 rats per cage) for 4-5 days. The range of mice body weight was between 19 and 25 grams and range of rats body weight was between 100 and 130 grams.
The obtained results are shown as mean±sem. The difference between the groups was statistically analyzed by ANOVA, and then further examined by Dunnett's test or Bonferroni test. If p is less than 0.05, it was determined that the difference between the groups had statistical significance.
The results of anti-epileptic activity of the sulfamate derivative compounds measured in the above Experimental Example are shown in the following Tables 4 and 5.

[1] = 3 mice, read-out: mMES(po) Protection %
[2] = 4 mice, read-out: mMES(po) Protection %

Question: With `NS(=O)(=O)OCC[C@H]1OC2(CCCC2)O[C@@H]1Cc1ccccc1Cl` [Example 142, 2-((2R, 3R)-3-(2-chlorobenzyl)-1,4-dioxaspiro[4,4]nonan-2-yl)ethyl sulfamate] as the compound, how does the responders at 80 mg/kg [1] read?
Answer: 33.3%

Question: How did the responders at 150 mg/kg (injection amount 150 mg/kg, 3 mice, read-out: mMES(po) Protection %) turn out when `CCC1(CC)O[C@H](CCOS(N)(=O)=O)[C@@H](Cc2ccccc2)O1` [Example 116, 2-((4R, 5R)-5-benzyl-2,2-diethyl-1,3-dioxolan-4-yl)ethyl sulfamate] was run?
Answer: 33.3%

Question: `NS(=O)(=O)OCC[C@@H]1OC2(CCCC2)O[C@H]1c1ccccc1` [Example 134, 2-((2S, 3S)-3-phenyl-1,4-dioxaspiro[4,4]nonan-2-yl)ethyl sulfamate] was tested. Which responders at 50 mg/kg [1] did it give?
Answer: 100%

Question: How did the responders at 50 mg/kg [1] turn out when `CNc1ccccc1[C@@H]1OC(C)(C)O[C@H]1COS(=O)(=O)NC` [Example 104, ((4S, 5S)-5-(2-methylaminophenyl)-2,2-dimethyl-1,3-dioxolan-4-yl)methyl methylsulfamate] was run?
Answer: 66.6%

Question: With `CC1(C)O[C@@H](CCOS(N)(=O)=O)[C@H](c2ccccc2)O1` [Example 130, 2-((4S, 5S)-5-phenyl-2,2-dimethyl-1,3-dioxolan-4-yl)ethyl sulfamate] as the compound, how does the responders at 50 mg/kg [1] read?
Answer: 33.3%

Question: With `NS(=O)(=O)OC[C@H]1OC2(CCCC2)O[C@@H]1Cc1ccccc1Cl` [Example 150, ((2R, 3R)-3-(2-chlorobenzyl)-1,4-dioxaspiro[4,4]nonan-2-yl)methyl sulfamate] as the compound, how does the responders at 50 mg/kg [1] read?
Answer: 100%

Question: `CCC1(CC)O[C@@H](CCOS(N)(=O)=O)[C@H](c2ccccc2)O1` [Example 132, 2-((4S, 5S)-5-phenyl-2,2-diethyl-1,3-dioxolan-4-yl)ethyl sulfamate] was tested. Which responders at 80 mg/kg [1] did it give?
Answer: 33.3%

Question: With `CCC1(CC)O[C@@H](COS(N)(=O)=O)[C@H](c2ccccc2)O1` [Example 108, ((4S, 5S)-5-phenyl-2,2-diethyl-1,3-dioxolan-4-yl)methyl sulfamate] as the compound, how does the responders at 50 mg/kg [1] read?
Answer: 100%

Question: For `NS(=O)(=O)OCC[C@H]1OC2(CCCCC2)O[C@@H]1Cc1ccccc1` [Example 120, 2-((2R, 3R)-3-benzyl-1,4-dioxaspiro[4,5]decane-2-yl)ethyl sulfamate], which responders at 80 mg/kg [1] is on record?
Answer: 66.6%

Question: How did the responders at 80 mg/kg [1] turn out when `CC1(C)O[C@H](CCOS(N)(=O)=O)[C@@H](Cc2ccccc2)O1` [Example 114, 2-((4R, 5R)-5-benzyl-2,2-dimethyl-1,3-dioxolan-4-yl)ethyl sulfamate] was run?
Answer: 33.3%

Question: With `NS(=O)(=O)OC[C@H]1OC2(CCCCC2)O[C@@H]1Cc1ccccc1` [Example 128, ((2R, 3R)-3-benzyl-1,4-dioxaspiro[4,5]decan-2-yl)methyl sulfamate] as the compound, how does the responders at 50 mg/kg [1] read?
Answer: 100%

Question: How did the responders at 50 mg/kg [1] turn out when `CC1(C)O[C@@H](COS(N)(=O)=O)[C@H](c2c(Cl)cccc2Cl)O1` [Example 52, ((4S, 5S)-5-(2,6-dichlorophenyl)-2,2-dimethyl-1,3-dioxolan-4-yl)methyl sulfamate] was run?
Answer: 100%

Question: With `NS(=O)(=O)OCC[C@@H]1OC2(CCCCC2)O[C@H]1c1ccccc1Cl` [Example 160, 2-((2S, 3S)-3-(2-chlorophenyl)-1,4-dioxaspiro[4,5]decan-2-yl)ethyl sulfamate] as the compound, how does the responders at 80 mg/kg [1] read?
Answer: 66.6%

Question: With `CC1(C)O[C@@H](COS(N)(=O)=O)[C@H](c2ccccc2)O1` [Example 106, ((4S, 5S)-5-phenyl-2,2-dimethyl-1,3-dioxolan-4-yl)methyl sulfamate] as the compound, how does the responders at 30 mg/kg (injection amount 30 mg/kg, 3 mice, read-out: mMES(po) Protection %) read?
Answer: 100%

Question: Which responders at 50 mg/kg [2] does the source give for `CCC1(CC)O[C@@H](COS(N)(=O)=O)[C@H](c2ccccc2Cl)O1` [Example 8, ((4S, 5S)-5-(2-chlorophenyl)-2,2-diethyl-1,3-dioxolan-4-yl)methyl sulfamate] here?
Answer: 100%

Question: Which responders at 80 mg/kg [1] does the source give for `CCC1(CC)O[C@@H](CCOS(N)(=O)=O)[C@H](c2ccccc2Cl)O1` [Example 156, 2-((4S, 5S)-5-(2-chlorophenyl)-2,2-diethyl-1,3-dioxolan-4-yl)ethyl sulfamate] here?
Answer: 100%

Question: `Cc1nc(Cl)sc1[C@@H]1OC(C)(C)O[C@H]1COS(N)(=O)=O` [Example 170, ((4S, 5R)-2,2-dimethyl-5-(2-chloro-4-methylthiazol-5-yl)-1,3-dioxolan-4-yl)methylsulfamate] was tested. Which responders at 100 mg/kg [1] did it give?
Answer: 100%

Question: Which ED50 does the source give for `CC1(C)O[C@@H](COS(N)(=O)=O)[C@H](c2ccc(Cl)cc2Cl)O1` [Example 40, ((4S, 5S)-5-(2,4-dichlorophenyl)-2,2-dimethyl-1,3-dioxolan-4-yl)methyl sulfamate] here?
Answer: 49.2 mg/kg

Question: For `CC1(C)O[C@@H](COS(N)(=O)=O)[C@H](c2ccsc2)O1` [Example 171, ((4S, 5S)-2,2-dimethyl-5-(thiophen-3-yl)-1,3-dioxolan-4-yl)methylsulfamate], which ED50 is on record?
Answer: 43.3 mg/kg

Question: For `NS(=O)(=O)OCC[C@H]1OC2(CCCC2)O[C@@H]1Cc1ccccc1` [Example 118, 2-((2R, 3R)-3-benzyl-1,4-dioxaspiro[4,4]nonan-2-yl)ethyl sulfamate], which responders at 80 mg/kg [1] is on record?
Answer: 66.6%

Question: For `NS(=O)(=O)OC[C@@H]1OC2(CCCCC2)O[C@H]1c1ccccc1Cl` [Example 12, ((2S, 3S)-3-(2-chlorophenyl)-1,4-dioxaspiro[4,5]decan-2-yl)methyl sulfamate], which responders at 50 mg/kg [2] is on record?
Answer: 100%

Question: For `CC1(C)OC(COS(N)(=O)=O)C(c2cnc(Cl)nc2)O1` (stereo not shown) [Example 176, (2,2-dimethyl-5-(2-chloropyrimidin-5-yl)-1,3-dioxolan-4-yl)methylsulfamate], which responders at 100 mg/kg [1] is on record?
Answer: 100%

Question: Which responders at 100 mg/kg [1] does the source give for `CC1(C)OC(COS(N)(=O)=O)C(c2ccncc2Cl)O1` (stereo not shown) [Example 173, (5-(3-chloropyridin-4-yl)-2,2-dimethyl-1,3-dioxolan-4-yl)methylsulfamate] here?
Answer: 100%

Question: `Nc1ccccc1[C@@H]1OC(c2ccccc2)O[C@H]1COS(N)(=O)=O` (stereo partly drawn) [Example 76, ((4S, 5S)-5-(2-aminophenyl)-2-phenyl-1,3-dioxolan-4-yl)methyl sulfamate] was tested. Which responders at 50 mg/kg [1] did it give?
Answer: 66%

Question: For `CC1(C)O[C@@H](COS(N)(=O)=O)[C@@H](c2ccccc2Cl)O1` [Example 162, ((4S, 5R)-5-(2-chlorophenyl)-2,2-dimethyl-1,3-dioxolan-4-yl)methyl sulfamate], which responders at 100 mg/kg [1] is on record?
Answer: 100%

Question: For `NS(=O)(=O)OC[C@H]1OC2(CCCC2)O[C@@H]1Cc1ccccc1` [Example 126, ((2R, 3R)-3-benzyl-1,4-dioxaspiro[4,4]nonan-2-yl)methyl sulfamate], which responders at 50 mg/kg [1] is on record?
Answer: 100%

Question: For `CC1(C)OC(COS(N)(=O)=O)C(c2ccccc2Cl)O1` (mixture of isomers) [Example 3, (5-(2-chlorophenyl)-2,2-dimethyl-1,3-dioxolan-4-yl)methyl sulfamate(SS & RR mixture)], which ED50 is on record?
Answer: 14 mg/kg

Question: For `NS(=O)(=O)OC[C@@H]1OC2(CCCCC2)O[C@H]1c1ccccc1` [Example 112, ((2S, 3S)-3-phenyl-1,4-dioxaspiro[4,5]decan-2-yl)methyl sulfamate], which responders at 50 mg/kg [1] is on record?
Answer: 100%

Question: `CC1(C)O[C@H](CCOS(N)(=O)=O)[C@@H](Cc2ccccc2Cl)O1` [Example 138, 2-((4R, 5R)-5-(2-chlorobenzyl)-2,2-dimethyl-1,3-dioxolan-4-yl)ethyl sulfamate] was tested. Which responders at 80 mg/kg [1] did it give?
Answer: 33.3%

Question: `Nc1ccccc1[C@@H]1OC2(CCCCC2)O[C@H]1COS(N)(=O)=O` [Example 74, ((2S, 3S)-3-(2-aminophenyl)-1,4-dioxaspiro[4,5]decan-2-yl)methyl sulfamate] was tested. Which ED50 did it give?
Answer: 14.5 mg/kg

Question: With `CCC1(CC)O[C@@H](COS(N)(=O)=O)[C@H](c2ccccc2N)O1` [Example 70, ((4S, 5S)-5-(2-aminophenyl)-2,2-diethyl-1,3-dioxolan-4-yl)methyl sulfamate] as the compound, how does the responders at 50 mg/kg [1] read?
Answer: 100%

Question: Which responders at 50 mg/kg [1] does the source give for `CC1(C)O[C@@H](CCOS(N)(=O)=O)[C@H](c2ccccc2Cl)O1` [Example 154, 2-((4S, 5S)-5-(2-chlorophenyl)-2,2-dimethyl-1,3-dioxolan-4-yl)ethyl sulfamate] here?
Answer: 100%

Question: For `CC1(C)O[C@H](c2cnc(Cl)s2)[C@@H](COS(N)(=O)=O)O1` [Example 165, ((4R, 5S)-5-(2-chlorothiazol-5-yl)-2,2-dimethyl-1,3-dioxolan-4-yl)methylsulfamate], which responders at 100 mg/kg [1] is on record?
Answer: 100%

Question: For `CC1O[C@@H](COS(N)(=O)=O)[C@H](c2ccccc2Cl)O1` (stereo partly drawn) [Example 6, ((4S, 5S)-5-(2-chlorophenyl)-2-methyl-1,3-dioxolan-4-yl)methyl sulfamate], which responders at 50 mg/kg [1] is on record?
Answer: 33%

Question: `CC1(C)O[C@H](COS(N)(=O)=O)[C@@H](Cc2ccccc2Cl)O1` [Example 146, ((4R, 5R)-5-(2-chlorobenzyl)-2,2-dimethyl-1,3-dioxolan-4-yl)methyl sulfamate] was tested. Which responders at 50 mg/kg [1] did it give?
Answer: 66.6%

Question: How did the responders at 50 mg/kg [1] turn out when `NS(=O)(=O)OCC[C@@H]1OC2(CCCCC2)O[C@H]1c1ccccc1` [Example 136, 2-((2S, 3S)-3-phenyl-1,4-dioxaspiro[4,5]decan-2-yl)ethyl sulfamate] was run?
Answer: 100%

Question: With `NS(=O)(=O)OC[C@@H]1OC2(CCCC2)O[C@H]1c1ccccc1` [Example 110, ((2S, 3S)-3-phenyl-1,4-dioxaspiro[4,4]nonan-2-yl)methyl sulfamate] as the compound, how does the responders at 9 mg/kg (injection amount 9 mg/kg, 3 mice, read-out: mMES(po) Protection %) read?
Answer: 33.3%
